By IC50 is commonly meant the concentration needed to halve the response being measured.

Where two headings read alike, the source gives them in different places.

The target of assay [1] is T1, Protease, CTSG (Cathepsin G) (Homo sapiens, UniProt P08311).
T1 sequence (P08311 21-255): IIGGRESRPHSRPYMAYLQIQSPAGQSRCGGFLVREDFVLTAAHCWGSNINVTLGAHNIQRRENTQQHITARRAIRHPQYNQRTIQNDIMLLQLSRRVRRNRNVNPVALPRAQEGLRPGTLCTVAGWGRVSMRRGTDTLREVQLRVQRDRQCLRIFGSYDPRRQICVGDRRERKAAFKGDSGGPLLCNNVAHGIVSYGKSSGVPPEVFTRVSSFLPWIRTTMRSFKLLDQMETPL
As to the kind of experiment: Protease, CTSG (Cathepsin G) inhibition assay. It counts as biochemical. Particulars: reference compound, concurrent run; read-out: Concurrent MIC IC50.

The target in assay [2] is T1, Protease, CTSG (Cathepsin G). To be noted: reference compound, historical value; cited from earlier work.

For `CC(C)C[C@H](NC(=O)[C@@H](NC(=O)N[C@@H](Cc1ccccc1)C(=O)O)[C@@H]1CCN=C(N)N1)C(=O)N[C@H](C=O)Cc1ccccc1` [Chumostatin], the IC50 in assay [1] was 1220 nM; in assay [2], 2100 nM.
